From patent publication US4200628A, “Novel aminoglycoside derivatives” (Shionogi & Co., Ltd., priority 1977, dated 1980)
Converted amounts (≈) assume the structure as drawn.

Key:
Test in all cases: MIC, antimicrobial activity
Type in all cases: cell-based
[1] = test system: Proteus vulgaris TB-615; settings: for Minimum Inhibitory Concentration (MIC): Proteus vulgaris TB-615, tobramycin resistant strain; for MIC: Proteus vulgaris, TB615, Proteus vulgaris TB-615, tobramycin resistant strain, read-out: Minimum Inhibitory Concentration (MIC)
[2] = test system: Staphylococcus epidermidis TB-775; settings: for Minimum Inhibitory Concentration (MIC): Staphylococcus epidermidis TB-775, tobramycin resistant strain; for MIC: Staphylococcus epidermidis, TB775, Staphylococcus epidermidis TB-775, tobramycin resistant strain, read-out: Minimum Inhibitory Concentration (MIC)
[3] = test system: Pseudomonas aeruginosa TB-121; settings: for Minimum Inhibitory Concentration (MIC): Pseudomonas aeruginosa TB-121, tobramycin resistant strain; for MIC: Pseudomonas aeruginosa, TB121, Pseudomonas aeruginosa TB-121, tobramycin resistant strain, read-out: Minimum Inhibitory Concentration (MIC)
[4] = test system: Pseudomonas aeriginosa TB-151; settings: for Minimum Inhibitory Concentration (MIC): Pseudomonas aeriginosa TB-151, tobramycin resistant strain; for MIC: Pseudomonas, TB151, read-out: Minimum Inhibitory Concentration (MIC), Pseudomonas aeriginosa TB-151, tobramycin resistant strain

SMILES	Minimum Inhibitory Concentration (MIC) [1] [µg/mL]	Minimum Inhibitory Concentration (MIC) [2] [µg/mL]	Minimum Inhibitory Concentration (MIC) [3] [µg/mL]	Minimum Inhibitory Concentration (MIC) [4] [µg/mL]	MIC [2] [µg/mL]	MIC [1] [µg/mL]	MIC [4] [µg/mL]	MIC [3] [µg/mL]
NC[C@H]1O[C@H](O[C@H]2[C@H](O)[C@@H](O[C@H]3O[C@H](CO)[C@@H](O)[C@H](N)[C@H]3O)[C@H](NC(=O)C(O)C3CCCN3)C[C@@H]2N)[C@H](N)C[C@@H]1O (some centres unmarked) [(7), 1-N-[2-hydroxy-2-(pyrrolidin-2-yl)acetyl]tobramycin]	> 100.0	> 100.0	100.0	50.0	–	–	–	–
NC[C@H]1O[C@H](O[C@H]2[C@H](O)[C@@H](O[C@H]3O[C@H](CO)[C@@H](O)[C@H](N)[C@H]3O)[C@H](NC(=O)C(O)C3CCCN3)C[C@@H]2N)[C@H](N)C[C@@H]1O (some centres unmarked) [(5), 1-N-[2-hydroxy-2-(pyrrolidin-2-yl)acetyl]tobramycin]	100.0	–	25.0	100.0	100 (≈ 168 µM)	–	–	–
NC[C@H]1O[C@H](O[C@H]2[C@H](O)[C@@H](O[C@H]3O[C@H](CO)[C@@H](O)[C@H](N)[C@H]3O)[C@H](N)C[C@@H]2N)[C@H](N)C[C@@H]1O [TOB, tobramycin, reference compound]	–	–	–	–	–	25 (≈ 53.5 µM)	100 (≈ 214 µM)	–
NC[C@H]1O[C@H](O[C@H]2[C@H](O)[C@@H](O[C@H]3O[C@H](CO)[C@@H](O)[C@H](N)[C@H]3O)[C@H](NC(=O)C(O)C3CCCNC3)C[C@@H]2N)[C@H](N)C[C@@H]1O (some centres unmarked) [(4), 1-N-[2-hydroxy-2-(piperidin-3-yl)acetyl]tobramycin]	–	–	–	–	25 (≈ 41.1 µM)	25 (≈ 41.1 µM)	25 (≈ 41.1 µM)	25 (≈ 41.1 µM)
NC[C@H]1O[C@H](O[C@H]2[C@H](O)[C@@H](O[C@H]3O[C@H](CO)[C@@H](O)[C@H](N)[C@H]3O)[C@H](NC(=O)C(O)C3CCN3)C[C@@H]2N)[C@H](N)C[C@@H]1O (some centres unmarked) [(2), 1-N-[2-hydroxy-2-(azetidin-2-yl)acetyl]tobramycin]	–	–	–	–	100 (≈ 172 µM)	> 100	12.5 (≈ 21.5 µM)	12.5 (≈ 21.5 µM)
NC[C@H]1O[C@H](O[C@H]2[C@H](O)[C@@H](O[C@H]3O[C@H](CO)[C@@H](O)[C@H](N)[C@H]3O)[C@H](NC(=O)C(O)C3CCCN3)C[C@@H]2N)[C@H](N)C[C@@H]1O (some centres unmarked) [(6), 1-N-[2-hydroxy-2-(pyrrolidin-2-yl)acetyl]tobramycin]	25.0	50.0	6.2	12.5	–	–	–	–
NC[C@H]1O[C@H](O[C@H]2[C@H](O)[C@@H](O[C@H]3O[C@H](CO)[C@@H](O)[C@H](N)[C@H]3O)[C@H](NC(=O)C(O)C3CCNC3)C[C@@H]2N)[C@H](N)C[C@@H]1O (some centres unmarked) [(1), 1-N-[2-hydroxy-2-(pyrrolidin-3-yl)acetyl]tobramycin]	–	–	–	–	6.2 (≈ 10.4 µM)	12.5 (≈ 21 µM)	6.2 (≈ 10.4 µM)	6.2 (≈ 10.4 µM)
NC[C@H]1O[C@H](O[C@H]2[C@H](O)[C@@H](O[C@H]3O[C@H](CO)[C@@H](O)[C@H](N)[C@H]3O)[C@H](NC(=O)C(O)C3CNC3)C[C@@H]2N)[C@H](N)C[C@@H]1O (some centres unmarked) [(3), 1-N-[2-hydroxy-2-(azetidin-3-yl)acetyl]tobramycin]	–	–	–	–	6.2 (≈ 10.7 µM)	12.5 (≈ 21.5 µM)	3.1 (≈ 5.34 µM)	3.1 (≈ 5.34 µM)
NC[C@H]1O[C@H](O[C@H]2[C@H](O)[C@@H](O[C@H]3O[C@H](CO)[C@@H](O)[C@H](N)[C@H]3O)[C@H](NC(=O)C(O)C3CNCCN3)C[C@@H]2N)[C@H](N)C[C@@H]1O (single isomer, unassigned) [(9), 1-N-[2-hydroxy-2-(piperazin-2-yl)acetyl]tobramycin]	50.0	50.0	12.5	25.0	–	–	–	–
NC[C@H]1O[C@H](O[C@H]2[C@H](O)[C@@H](O[C@H]3O[C@H](CO)[C@@H](O)[C@H](N)[C@H]3O)[C@H](NC(=O)C(O)C3CNCCN3)C[C@@H]2N)[C@H](N)C[C@@H]1O (single isomer, unassigned) [(8), 1-N-[2-hydroxy-2-(piperazin-2-yl)acetyl]tobramycin]	12.5	–	6.2	6.2	25 (≈ 41 µM)	–	–	–
